Measured values published in PMC10569065, “Major distinctions between the two oligopeptide permease systems of Bacillus subtilis with respect to signaling, development and evolutionary divergence” (Microbiology, 2023).
Where no end group is shown, it is not given here.

Columns and labels:
App permease = details: previous work; cited from earlier work
Text: App was also as effective as Opp in uptaking the PapR pentapeptide, but not in importing the PhrC/F/P pentapeptides. Previous work has identified several App transported peptides, including the nonapeptide […] [[2, 50]].

[1] = system: Opp permease (Opp-only strain O+;A-, AES7413, expressing RapA); assay: Co-culture PspoIIG-3×yfp early sporulation reporter, RapA strain, Opp-only; format: cell-based, Bacillus subtilis; details: 10 µM peptide, SMM with very low glucose, 3 h, ON = 10-fold higher than background
Protocol: (§1) Flow cytometry was performed to quantify gene expression at the single-cell level, using a Beckman-Coulter Gallios flow-cytometer equipped with four lasers (405 nm, 488 nm co-linear with 561 nm, 638 nm). The emission filters used were as follows: BFP – 450/50, YFP – 525/40, mCherry – 620/30. Two methods were used to distinguish between co-cultured cells. Strains coding for rapP where transformed by plasmids carrying either an mCherry or mTag2-BFP genes under a constitutive promoter. For the rest of the strains, the same constructs were integrated into the bacterial genome at the lacA locus. YFP levels were measured relative to a set voltage, which was approximately set such that a value of 1 will be given to autofluorescence of strain PY79 in SMM medium.
(§2) Cells were grown to OD600 <0.1, in SMM medium containing trace elements and glucose, then diluted by a factor of 10^6 or 10^7 into fresh SMM medium and grown for about 16 h in exponential phase. […] At each time point OD600nm was measured using a spectrophotometer and fluorescence was measured using a flow cytometry. […]
(§3) Fig. 5. […] ON cells are determined as the cells that have expressed P spoIIG-3 ×yfp 10-fold higher than background. […] YFP levels were measured for single cells using flow cytometry 3 h after the peptide was added to co-culture of both strains, App and Opp. […]

[2] = system: App permease (App-only strain O-;A+, AES7410, expressing RapA); assay: Co-culture PspoIIG-3×yfp early sporulation reporter, RapA strain, App-only; format: cell-based, Bacillus subtilis; details: maximal peptide concentration, SMM with very low glucose, 3 h
Protocol: as §1, §2, §3

[3] = system: ɸ3T infection of B. subtilis 3610 plasmid-free permease variants; assay: Phage ɸ3T infection dynamics (optical density) in presence of arbitrium peptide; format: cell-based, Bacillus subtilis; details: ɸ3T m.o.i.=0.1 in LB
Protocol: Overnight culture grown in LB of the appropriate strain was diluted by a factor of 1 : 100 into fresh containing 0.1 mM MnCl2 and 5 mM MgCl2. The strains were then grown at 37 °C with shaking at 220 r.p.m. Upon reaching an of OD600=0.3, the strains infected with free ɸ3T at m.o.i.=0.1 and supplemented with 10 µM of the synthetic peptide SAIRGA. Optical density measurements at a wavelength of 600 nm were performed in a 96-well plate using a plate reader (PerkinElmer VICTOR Nivo 622 Multimode Plate Reader).
We wondered whether App is capable of transporting the signalling molecules of arbitrium, the second RRNPP system found in B. subtilis phages. The B. subtilis phage φ3T utilizes an arbitrium system with the small peptide SAIRGA to control the lysis-lysogeny and induction decisions [[17, 22]]. Increased signal concentration tilts the decision towards lysogeny. To further examine the impact of App and Opp on quorum-sensing-dependent activation of φ3T horizontal transfer, we utilized a plate reader to examine the phage infection dynamics by monitoring its impact on optical density during infection of the different variants in Lysogeny Broth (LB) medium.
Fig. 4. […] Growth curves are represented as the mean optical density (dark colour) and its error (light grey) as a function of time (minutes) taken using a plate-reader. […]

[4] = target: T1, Opp permease (Opp-only strain O+;A-, expressing RapC, RapF or RapP) (Bacillus subtilis, UniProt P24141); assay: Co-culture PsrfA-3×yfp reporter response to added Phr peptide, Opp-only strain; format: cell-based
T1 construct: full deletion mutants of the App (Opp-only; O^+;A^-) and Opp (App-only; O^-;A^+) operons; endogenous in cells; host or cells: Bacillus subtilis 3610 (plasmid-free), Opp-only strains O+;A- (AES7204, AES7202, AES5524, AES7207)
T1 sequence (P24141 21-545): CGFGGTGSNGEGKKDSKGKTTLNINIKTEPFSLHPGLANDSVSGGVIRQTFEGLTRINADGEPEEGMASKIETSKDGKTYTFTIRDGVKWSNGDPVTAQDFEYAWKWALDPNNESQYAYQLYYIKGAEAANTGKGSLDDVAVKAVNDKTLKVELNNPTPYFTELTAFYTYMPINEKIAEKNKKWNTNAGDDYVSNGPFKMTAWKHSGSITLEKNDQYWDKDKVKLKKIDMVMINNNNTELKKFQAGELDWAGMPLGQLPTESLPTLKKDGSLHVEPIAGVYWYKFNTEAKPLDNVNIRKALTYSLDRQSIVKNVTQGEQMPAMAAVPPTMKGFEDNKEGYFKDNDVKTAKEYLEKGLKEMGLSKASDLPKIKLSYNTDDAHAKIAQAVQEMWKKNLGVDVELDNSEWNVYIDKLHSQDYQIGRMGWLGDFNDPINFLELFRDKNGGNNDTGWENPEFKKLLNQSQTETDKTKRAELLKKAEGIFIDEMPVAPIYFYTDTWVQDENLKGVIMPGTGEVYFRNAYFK
Protocol: as §1
(§4) Cells were grown to OD600 <0.1, in SMM medium containing trace elements and glucose, then diluted by a factor of 10^6 or 10^7 into fresh SMM medium and grown for about 16 h in exponential phase. In co-culture gene-expression experiments, each strain was grown from a single colony in SMM to OD600 <0.1 or diluted to 0.1 prior to strain mixing. The two strains were mixed at equal volumes and then diluted by a factor of 10^6 or 10^7 in fresh SMM medium. Samples were taken from cultures at several time-points. At each time point OD600nm was measured using a spectrophotometer and fluorescence was measured using a flow cytometry. […]

[5] = system: App permease (App-only strain O-;A+, expressing RapC, RapF or RapP); assay: Co-culture PsrfA-3×yfp reporter response to added Phr peptide, App-only strain; format: cell-based, Bacillus subtilis; details: co-culture with Opp-only strain, SMM, 3 h after peptide addition, PhrP increase at concentrations higher than 1 µM
Protocol: as §1, §4

[6] = target: T2, App permease, App^3610 allele (App-only strain O-;A+, AES7075, expressing PlcR) (Bacillus subtilis, UniProt P42061); assay: Co-culture PplcA-3×yfp reporter of PlcR receivers, App-only strain (App3610); format: cell-based
T2 construct: full deletion mutants of the App (Opp-only; O^+;A^-) and Opp (App-only; O^-;A^+) operons; endogenous in cells; host or cells: Bacillus subtilis 3610 (plasmid-free), App-only strain O-;A+ (AES7075)
T2 sequence (P42061 24-543): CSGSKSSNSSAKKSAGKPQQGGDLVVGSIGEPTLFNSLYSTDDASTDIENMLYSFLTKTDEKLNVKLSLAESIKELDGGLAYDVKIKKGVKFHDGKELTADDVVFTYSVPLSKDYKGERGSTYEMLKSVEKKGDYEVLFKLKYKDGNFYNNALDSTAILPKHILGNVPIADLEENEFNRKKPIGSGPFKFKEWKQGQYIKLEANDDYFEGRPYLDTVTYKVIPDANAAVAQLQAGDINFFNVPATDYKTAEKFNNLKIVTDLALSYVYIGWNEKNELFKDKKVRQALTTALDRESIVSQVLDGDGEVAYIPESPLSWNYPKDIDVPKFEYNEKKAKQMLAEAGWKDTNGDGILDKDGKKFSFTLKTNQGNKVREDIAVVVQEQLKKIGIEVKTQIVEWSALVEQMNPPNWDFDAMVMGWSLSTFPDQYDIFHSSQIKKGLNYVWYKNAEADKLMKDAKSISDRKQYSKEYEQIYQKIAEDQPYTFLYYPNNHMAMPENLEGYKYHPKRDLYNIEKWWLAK
Protocol: as §1
as §4, with “The two strains were mixed at equal volumes and then diluted by a factor of 10^6 or 10^7 in fresh SMM medium. Samples were taken from cultures at several time-points.” left out
(§5) Fig. 8. […] YFP levels were measured for single cells using flow cytometry 3 h after the peptide was added. […] Biological repeats at the same concentrations were measured on different days. […]

[7] = target: T3, Opp permease (Opp-only strain O+;A-, AES7207, expressing PlcR) (Bacillus subtilis, UniProt P24141); assay: Co-culture PplcA-3×yfp reporter of PlcR receivers, Opp-only strain; format: cell-based
T3 construct: full deletion mutants of the App (Opp-only; O^+;A^-) and Opp (App-only; O^-;A^+) operons; endogenous in cells; host or cells: Bacillus subtilis 3610 (plasmid-free), Opp-only strains O+;A- (AES7204, AES7202, AES5524, AES7207)
T3 sequence (P24141 21-545): as the sequence (P24141 21-545) above
Protocol: as §1
as §4, with “The two strains were mixed at equal volumes and then diluted by a factor of 10^6 or 10^7 in fresh SMM medium. Samples were taken from cultures at several time-points.” left out
as §5

FGFG [tetrapeptide reported in previous work as transported by App]
transport by App (App permease): able to transport

FLEEI [pentapeptide reported in previous work as transported by App]
transport by App (App permease): able to transport

ARNQT [PhrA, synthetic PhrA signalling pentapeptide (ARNQT) of the RapA-PhrA system]
percentage of cells with high YFP levels (ON cells, PspoIIG-3×yfp) [1]: ~ 20% | fraction of sporulating cells (ON cells, PspoIIG-3×yfp) [2]: 0.2%

SAIRGA [synthetic arbitrium hexapeptide of B. subtilis phage φ3T]
optical density on ɸ3T infection with peptide, App-only (O-;A+) ([3]; AES6372, 10 µM peptide): marked reduction in optical density | lysis on ɸ3T infection with peptide, WT (O+;A+) ([3]; WT DS2569, 10 µM peptide added at OD600=0.3, plate reader OD600): did not lyse

ERGMT [PhrC]
EC50 [4]: < 10 nM | YFP levels (PsrfA-3×yfp) with increasing peptide concentrations, App-only strains [5]: marginally increased

QRGMI [PhrF]
EC50 [4]: < 10 nM | YFP levels (PsrfA-3×yfp) with increasing peptide concentrations, App-only strains [5]: marginally increased

LPFEF [penta-PapR]
EC50 [6]: 290 nM | EC50 [7]: 650 nM
